From ChEMBL document CHEMBL1201862, “PubChem BioAssay data set” (2004)
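Following 48 hours of exposure in 96-well plates, responses at five concentrations were used to interpolate endpoints linearly. GI50 is the concentration that inhibits growth by half.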 The source made the active and inactive calls. Rule as the data show it: active = GI50 up to about 1.1 µM and inactive = higher.

Key:
Assay in all cases: inhibition of tumour cell growth, NCI panel, 48 h
786-0 = tested on: 786-0
A498 = tested on: A498
A549 = tested on: A549
ACHN = tested on: ACHN
CAKI-1 = tested on: CAKI-1
CCRF-CEM = tested on: CCRF-CEM
COLO 205 = tested on: COLO 205
DLD-1 = tested on: DLD-1
DMS-114 = tested on: DMS-114
DMS-273 = tested on: DMS-273
EKVX = tested on: EKVX
HCC 2998 = tested on: HCC 2998
HCT-116 = tested on: HCT-116
HCT-15 = tested on: HCT-15
HL-60 = tested on: HL-60
HOP-18 = tested on: HOP-18
HOP-62 = tested on: HOP-62
HOP-92 = tested on: HOP-92
HT-29 = tested on: HT-29
IGROV-1 = tested on: IGROV-1
K562 = tested on: K562
KM-20L2 = tested on: KM-20L2
KM12 = tested on: KM12
LOX IMVI = tested on: LOX IMVI
LXFL 529 = tested on: LXFL 529
M14 = tested on: M14
M19-MEL = tested on: M19-MEL
MOLT-4 = tested on: MOLT-4
Malme-3M = tested on: Malme-3M
NCI-H226 = tested on: NCI-H226
NCI-H23 = tested on: NCI-H23
NCI-H460 = tested on: NCI-H460
NCI-H522 = tested on: NCI-H522
OVCAR-3 = tested on: OVCAR-3
OVCAR-4 = tested on: OVCAR-4
OVCAR-5 = tested on: OVCAR-5
OVCAR-8 = tested on: OVCAR-8
RPMI-8226 = tested on: RPMI-8226
RXF 393 = tested on: RXF 393
SF-268 = tested on: SF-268
SF-295 = tested on: SF-295
SF-539 = tested on: SF-539
SK-MEL-28 = tested on: SK-MEL-28
SK-MEL-2 = tested on: SK-MEL-2
SK-MEL-5 = tested on: SK-MEL-5
SK-OV-3 = tested on: SK-OV-3
SN12C = tested on: SN12C
SNB-19 = tested on: SNB-19
SNB-75 = tested on: SNB-75
SNB-78 = tested on: SNB-78
SR = tested on: SR
SW-620 = tested on: SW-620
TK-10 = tested on: TK-10
U-251 = tested on: U-251
UACC-257 = tested on: UACC-257
UACC-62 = tested on: UACC-62
UO-31 = tested on: UO-31
BT-549 = tested on: BT-549
DU-145 = tested on: DU-145
Hs-578T = tested on: Hs-578T
MCF7 = tested on: MCF7
MDA-MB-231 = tested on: MDA-MB-231
MDA-MB-435 = tested on: MDA-MB-435
MDA-N = tested on: MDA-N
NCI/ADR-RES = tested on: NCI/ADR-RES
PC-3 = tested on: PC-3
T47D = tested on: T47D

O=C(/C=C/c1ccccc1Cl)c1cccc2ccccc12
GI50 (786-0): 5.15 µM (inactive) | GI50 (A498): 14.4 µM (inactive) | GI50 (A549): 16.7 µM (inactive) | GI50 (ACHN): 16.7 µM (inactive) | GI50 (CAKI-1): 12.5 µM (inactive) | GI50 (CCRF-CEM): 4.82 µM (inactive) | GI50 (COLO 205): 19 µM (inactive) | GI50 (DLD-1): 8.51 µM (inactive) | GI50 (DMS-114): 4.46 µM (inactive) | GI50 (DMS-273): 13.4 µM (inactive) | GI50 (EKVX): 12.8 µM (inactive) | GI50 (HCC 2998): 14.5 µM (inactive) | GI50 (HCT-116): 3.71 µM (inactive) | GI50 (HCT-15): 3.75 µM | GI50 (HL-60): 10.4 µM (inactive) | GI50 (HOP-18): 16.1 µM (inactive) | GI50 (HOP-62): 14.3 µM (inactive) | GI50 (HOP-92): 20.3 µM (inactive) | GI50 (HT-29): 10.4 µM (inactive) | GI50 (IGROV-1): 15.3 µM (inactive) | GI50 (K562): 4.38 µM (inactive) | GI50 (KM-20L2): 7.06 µM (inactive) | GI50 (KM12): 5.24 µM (inactive) | GI50 (LOX IMVI): 11.4 µM (inactive) | GI50 (LXFL 529): 3.06 µM (inactive) | GI50 (M14): 16.3 µM (inactive) | GI50 (M19-MEL): 11 µM (inactive) | GI50 (MOLT-4): 2.16 µM (inactive) | GI50 (Malme-3M): 16.1 µM (inactive) | GI50 (NCI-H226): 27.7 µM (inactive) | GI50 (NCI-H23): 12.6 µM (inactive) | GI50 (NCI-H460): 2.82 µM (inactive) | GI50 (NCI-H522): 6.65 µM (inactive) | GI50 (OVCAR-3): 4.4 µM (inactive) | GI50 (OVCAR-4): 4.81 µM (inactive) | GI50 (OVCAR-5): 13.6 µM (inactive) | GI50 (OVCAR-8): 1.97 µM (inactive) | GI50 (RPMI-8226): 17.2 µM (inactive) | GI50 (RXF 393): 14 µM (inactive) | GI50 (SF-268): 12.9 µM (inactive) | GI50 (SF-295): 12.5 µM (inactive) | GI50 (SF-539): 10.8 µM (inactive) | GI50 (SK-MEL-28): 13.7 µM (inactive) | GI50 (SK-MEL-2): 18.4 µM (inactive) | GI50 (SK-MEL-5): 19.4 µM (inactive) | GI50 (SK-OV-3): 18.9 µM (inactive) | GI50 (SN12C): 48.6 µM (inactive) | GI50 (SNB-19): 4.69 µM (inactive) | GI50 (SNB-75): 6.97 µM (inactive) | GI50 (SNB-78): 20.3 µM (inactive) | GI50 (SR): 2.52 µM (inactive) | GI50 (SW-620): 1.88 µM (inactive) | GI50 (TK-10): 15.8 µM (inactive) | GI50 (U-251): 2.66 µM (inactive) | GI50 (UACC-257): 18 µM (inactive) | GI50 (UACC-62): 15.2 µM (inactive) | GI50 (UO-31): 9.2 µM (inactive)

Cc1cc(-c2ccccc2)cc2[n+]1CC=C2.[O-][Cl+3]([O-])([O-])[O-]
GI50 (786-0): > 100 µM (inactive) | GI50 (A549): > 100 µM (inactive) | GI50 (ACHN): 51.4 µM (inactive) | GI50 (CAKI-1): > 100 µM (inactive) | GI50 (COLO 205): > 100 µM (inactive) | GI50 (DLD-1): 58.5 µM (inactive) | GI50 (DMS-114): 77.4 µM (inactive) | GI50 (DMS-273): 46.7 µM (inactive) | GI50 (EKVX): 54.6 µM (inactive) | GI50 (HCC 2998): > 100 µM (inactive) | GI50 (HCT-116): > 100 µM (inactive) | GI50 (HL-60): 72.3 µM (inactive) | GI50 (HOP-18): < 0.01 µM (active) | GI50 (HOP-62): > 100 µM (inactive) | GI50 (HOP-92): 15.5 µM (inactive) | GI50 (HT-29): 52.7 µM (inactive) | GI50 (KM-20L2): > 100 µM (inactive) | GI50 (KM12): > 100 µM (inactive) | GI50 (LOX IMVI): > 100 µM (inactive) | GI50 (LXFL 529): 58.3 µM (inactive) | GI50 (M14): > 100 µM (inactive) | GI50 (M19-MEL): > 100 µM (inactive) | GI50 (Malme-3M): 75 µM (inactive) | GI50 (NCI-H226): 45.6 µM (inactive) | GI50 (NCI-H23): 59.2 µM (inactive) | GI50 (NCI-H460): > 100 µM (inactive) | GI50 (NCI-H522): 39.6 µM (inactive) | GI50 (OVCAR-4): > 100 µM (inactive) | GI50 (OVCAR-5): > 100 µM (inactive) | GI50 (OVCAR-8): > 100 µM (inactive) | GI50 (RXF 393): 46.1 µM (inactive) | GI50 (SF-268): > 100 µM (inactive) | GI50 (SF-295): > 100 µM (inactive) | GI50 (SF-539): > 100 µM (inactive) | GI50 (SK-MEL-28): > 100 µM (inactive) | GI50 (SK-MEL-2): > 100 µM (inactive) | GI50 (SN12C): 95.5 µM (inactive) | GI50 (SNB-19): > 100 µM (inactive) | GI50 (SNB-75): 35.2 µM (inactive) | GI50 (SNB-78): > 100 µM (inactive) | GI50 (SW-620): > 100 µM (inactive) | GI50 (TK-10): 46.6 µM (inactive) | GI50 (U-251): > 100 µM (inactive) | GI50 (UACC-257): > 100 µM (inactive) | GI50 (UO-31): 39.4 µM (inactive)

CC[C@H](C)[C@H]1NC(=O)[C@@H](NC(=O)[C@@H](CC(C)C)N(C)CC2CCCN2C(=O)C(C)=O)[C@@H](C)OC(=O)[C@H](Cc2ccc(OC)cc2)N(C)C(=O)C2CCCN2C(=O)[C@H](CC(C)C)NC(=O)[C@@H](C)C(=O)[C@H](C(C)C)OC(=O)C[C@@H]1O (stereo partly specified)
GI50 (786-0): 0.00494 µM (active) | GI50 (A498): 0.00471 µM (active) | GI50 (A549): 0.00356 µM (active) | GI50 (ACHN): 0.00444 µM (active) | GI50 (BT-549): 0.0047 µM (active) | GI50 (CAKI-1): 0.0221 µM (active) | GI50 (CCRF-CEM): < 0.0025 µM (active) | GI50 (COLO 205): 0.00293 µM (active) | GI50 (DU-145): < 0.0025 µM (active) | GI50 (EKVX): 0.00379 µM (active) | GI50 (HCC 2998): 0.00448 µM (active) | GI50 (HCT-116): 0.00308 µM (active) | GI50 (HCT-15): 0.0769 µM | GI50 (HL-60): 0.00476 µM (active) | GI50 (HOP-62): 0.00361 µM (active) | GI50 (HOP-92): 0.00403 µM (active) | GI50 (HT-29): 0.00255 µM (active) | GI50 (Hs-578T): 0.00405 µM (active) | GI50 (IGROV-1): < 0.0025 µM (active) | GI50 (K562): 0.00531 µM (active) | GI50 (KM12): 0.00302 µM (active) | GI50 (LOX IMVI): 0.00291 µM (active) | GI50 (M14): 0.00374 µM (active) | GI50 (MCF7): < 0.0025 µM (active) | GI50 (MDA-MB-231): 0.00432 µM (active) | GI50 (MDA-MB-435): 0.00371 µM (active) | GI50 (MDA-N): 0.00508 µM (active) | GI50 (MOLT-4): < 0.0025 µM (active) | GI50 (Malme-3M): 0.00681 µM (active) | GI50 (NCI-H226): 0.0152 µM (active) | GI50 (NCI-H23): 0.00719 µM (active) | GI50 (NCI-H460): 0.00381 µM (active) | GI50 (NCI-H522): 0.00564 µM (active) | GI50 (NCI/ADR-RES): 0.0179 µM (active) | GI50 (OVCAR-3): 0.00324 µM (active) | GI50 (OVCAR-4): < 0.0025 µM (active) | GI50 (OVCAR-5): 0.00393 µM (active) | GI50 (OVCAR-8): 0.00372 µM (active) | GI50 (PC-3): 0.00406 µM (active) | GI50 (RPMI-8226): 0.00313 µM (active) | GI50 (RXF 393): < 0.0025 µM (active) | GI50 (SF-268): 0.00488 µM (active) | GI50 (SF-295): 0.00371 µM (active) | GI50 (SF-539): < 0.0025 µM (active) | GI50 (SK-MEL-28): 0.0049 µM (active) | GI50 (SK-MEL-2): 0.00351 µM (active) | GI50 (SK-MEL-5): 0.00311 µM (active) | GI50 (SK-OV-3): 0.00376 µM (active) | GI50 (SN12C): 0.00545 µM (active) | GI50 (SNB-19): 0.00356 µM (active) | GI50 (SNB-75): 0.00317 µM (active) | GI50 (SR): 0.00251 µM (active) | GI50 (SW-620): 0.00409 µM (active) | GI50 (T47D): 0.00344 µM (active) | GI50 (TK-10): 0.00853 µM (active) | GI50 (U-251): < 0.0025 µM (active) | GI50 (UACC-257): 0.00443 µM (active) | GI50 (UACC-62): 0.00294 µM (active) | GI50 (UO-31): 0.00893 µM (active)
